For 15 molecules, mortality and pest or weed control results are on record in patent publication US12583851B2, “Heteroaryl-substituted pyrazine derivatives as pesticides” (Elanco Animal Health GmbH, priority 2019, dated 2026).

Holding throughout (format): in vivo
Test [1] relates to fall armyworm larvae (Spodoptera frugiperda). Description: Spodoptera frugiperda spray test. To be noted: 168 h, maize leaf sections, after 7 days. The method, then: Spodoptera fruaiperda—Spray Test
Solvent: 78.0 parts by weight acetone • 1.5 parts by weight dimethylformamide
(§1) Emulsifier: alkylarylpolyglycol ether
To produce a suitable preparation of active compound, 1 part by weight of active compound is mixed with the stated amount of solvents and is diluted with water, containing an emulsifier concentration of 1000 ppm, to the desired concentration. Further test concentrations are prepared by dilution with emulsifier containing water.
Maize (Zea mays) leaf sections are sprayed with a preparation of the active ingredient of the desired concentration. Once dry, the leaf sections are infested with fall armyworm larvae (Spodoptera frugiperda).
After 7 days mortality in % is determined. 100% means all caterpillars have been killed and 0% means none of the caterpillars have been killed.

Test [2] has as its system larvae of the banded cucumber beetle (Diabrotica balteata). Description: Diabrotica balteata spray test. The conditions noted are these: 168 h, after 7 days, read-out: efficacy (seedling growth); for pest or weed control at 6.4 µg/disc, 20 g/ha: 20 g/ha (=6.4 μg/well); for pest or weed control at 32 µg/disc, 100 g/ha: 100 g/ha (=32 μg/well). The method, then:
Diabrotica balteata—Spray Test
Solvent: 78.0 parts by weight of acetone • • 1.5 parts by weight of dimethylformamide
as §1
To produce a suitable preparation of active compound, 1 part by weight of active compound is mixed with the stated amount of solvent, and the concentrate is diluted with water, containing an emulsifier concentration of 1000 ppm, to the desired concentration. Further test concentrations are prepared by dilution with emulsifier containing water.
Soaked wheat seeds (Triticum aestivum) are placed in a multiple well plate filled with agar and some water and are incubated for 1 day to germinate (5 seeds per well). The germinated wheat seeds are sprayed with a test solution containing the desired concentration of the active ingredient. Afterwards each unit is infected with 10-20 larvae of the banded cucumber beetle (Diabrotica balteata).
After 7 days efficacy in % is determined. 100% means all the seedlings have grown up like in the untreated, uninfected control; 0% means none of the seedlings have grown.

The subject of test [3] is Rhipicephalus (Boophilus) microplus larvae (strain Parkhurst, resistant against synthetic pyrethroids). The experiment in a line: Rhipicephalus (Boophilus) microplus in-vitro contact test, larval cattle tick. The conditions noted are these: after 48 hours, read-out: efficacy (larvae dead or moribund); for pest or weed control at 1 µg/cm2, 100 g/ha: 1 μg/cm^2 (=100 g/ha); for pest or weed control at 5 µg/cm2, 500 g/ha: 5 μg/cm^2 (=500 g/ha). The method, then: Rhipicephalus (Boophilus) microplus—In-Vitro Contact Tests Larval Cattle Tick (Strain Parkhurst, Resistant Against Synthetic Pyrethroids)
9 mg compound is solved in 1 mL acetone and diluted with acetone to the desired concentration. […] the test solution is filled in 25 mL glass test tubes and homogeneously distributed on the inner walls by rotation and tilting on a shaking device (2 h at 30 rpm). With a compound concentration of 900 ppm, an inner surface of 44.7 cm^2 and a homogeneous distribution, a dose of 5 μg/cm^2 is achieved.
After the solvent has evaporated, each test tube is filled with 20-50 cattle tick larvae (Rhipicephalus microplus), closed with a perforated lid and incubated in a horizontal position at 85% relative humidity and 27° C. in an incubator. After 48 hours efficacy is determined. The larvae are patted on the ground of the tubes and negative geotactic behaviour is recorded.
An efficacy of 100% means all larvae are dead or moribund; 0% means no larvae are dead or moribund.

With `CC(NC(=O)c1cc(C(F)(F)F)cc(C(F)(F)F)c1)c1nccnc1-n1cc(C#N)cn1` (racemic) [Example I-100, N-{(rac)-1-[3-(4-Cyano-1H-pyrazol-1-yl)pyrazin-2-yl]ethyl}-3,5-bis(trifluoromethyl)benzamide], the mortality at 100 g/ha in test [1] amounted to 100%. In test [2], the pest or weed control at 6.4 µg/disc, 20 g/ha came to 100% and the pest or weed control at 32 µg/disc, 100 g/ha came to 100%. Besides, in test [3], the pest or weed control at 1 µg/cm2, 100 g/ha amounted to 100% and the pest or weed control at 5 µg/cm2, 500 g/ha came to 100%.
In test [1], `CC(NC(=O)c1cc(Cl)cc(S(=O)(=O)C(F)(F)F)c1)c1nccnc1-n1cc(C#N)cn1` (racemic) [Example I-114, (rac)-3-Chloro-N-{1-[3-(4-cyano-1H-pyrazol-1-yl)pyrazin-2-yl]ethyl}-5-(trifluoromethanesulfonyl)benzamide] registered a mortality at 100 g/ha of 100%. Further, the pest or weed control at 32 µg/disc, 100 g/ha in test [2] came out at 100%. In test [3], the pest or weed control at 1 µg/cm2, 100 g/ha is 90% and the pest or weed control at 5 µg/cm2, 500 g/ha was 90%.
For the molecule `CC(NC(=O)c1cc(Br)cc(OC(F)(F)F)c1)c1nccnc1-c1ncc(C(=O)N(C)CC#N)s1` (racemic) [Example I-75, (rac)-2-(3-{1-[3-Bromo-5-(trifluoromethoxy)benzamido]ethyl}pyrazin-2-yl)-N-(cyanomethyl)-N-methyl-1,3-thiazole-5-carboxamide], the mortality at 100 g/ha in test [1] stood at 100%. In addition, in test [2], the pest or weed control at 32 µg/disc, 100 g/ha is 100%. Besides, in test [3], the pest or weed control at 1 µg/cm2, 100 g/ha was 90% and the pest or weed control at 5 µg/cm2, 500 g/ha was found to be 90%.
For the molecule `CC(NC(=O)c1cc(Br)cc(OC(F)(F)F)c1)c1nccnc1-c1ncc(C(=O)N(C)CC2CC2)s1` (racemic) [Example I-76, (rac)-2-(3-{1-[3-Bromo-5-(trifluoromethoxy)benzamido]ethyl}pyrazin-2-yl)-N-(cyclopropylmethyl)-N-methyl-1,3-thiazole-5-carboxamide], in test [1], the mortality at 100 g/ha came to 100%. For the same molecule, in test [2], the pest or weed control at 6.4 µg/disc, 20 g/ha was found to be 100% and the pest or weed control at 32 µg/disc, 100 g/ha came out at 100%. For the same molecule, in test [3], the pest or weed control at 1 µg/cm2, 100 g/ha was determined as 100% and the pest or weed control at 5 µg/cm2, 500 g/ha was determined as 100%.
In turn, `CC(NC(=O)c1cc(C(F)(F)F)cc(C(F)(F)F)c1)c1nccnc1-n1cc(C(F)(F)F)cn1` (racemic) [Example I-92, (rac)-3,5-Bis(trifluoromethyl)-N-[1-{3-[4-(trifluoromethyl)-1H-pyrazol-1-yl]pyrazin-2-yl}ethyl]benzamide] showed a mortality at 100 g/ha in test [1] of 100%. In test [2], the pest or weed control at 6.4 µg/disc, 20 g/ha was found to be 100% and the pest or weed control at 32 µg/disc, 100 g/ha amounted to 100%. Besides, in test [3], the pest or weed control at 1 µg/cm2, 100 g/ha came out at 100% and the pest or weed control at 5 µg/cm2, 500 g/ha came out at 100%.
In test [1], `CC(NC(=O)c1cc(Br)cc(C(F)(F)F)c1)c1nccnc1-c1ncc(C(=O)N2C[C@@H](C)O[C@@H](C)C2)s1` (mixture of isomers) [Example I-120, (rac)-3-Bromo-N-[1-(3-{5-[(cis)-2,6-dimethylmorpholine-4-carbonyl]-1,3-thiazol-2-yl}pyrazin-2-yl)ethyl]-5-(trifluoromethyl)benzamide] displayed a mortality at 100 g/ha of 100%. Besides, the pest or weed control at 32 µg/disc, 100 g/ha in test [2] was found to be 100%. Also, in test [3], the pest or weed control at 1 µg/cm2, 100 g/ha stood at 100% and the pest or weed control at 5 µg/cm2, 500 g/ha was 100%.
Consider `Cc1cnc(C(C)NC(=O)c2cc(C(F)(F)F)cc(C(F)(F)F)c2)c(-c2ncc(C(=O)N(C)CC#N)s2)n1` (racemic) [Example I-124, (rac)-2-(3-{1-[3,5-Bis(trifluoromethyl)benzamido]ethyl}-6-methylpyrazin-2-yl)-N-(cyanomethyl)-N-methyl-1,3-thiazole-5-carboxamide], for which the mortality at 100 g/ha in test [1] came out at 100%. Also, in test [2], the pest or weed control at 6.4 µg/disc, 20 g/ha was determined as 100% and the pest or weed control at 32 µg/disc, 100 g/ha is 100%. Further, in test [3], the pest or weed control at 1 µg/cm2, 100 g/ha is 100% and the pest or weed control at 5 µg/cm2, 500 g/ha turned out to be 100%.
The molecule `CC(NC(=O)c1cc(Br)cc(C(F)(F)F)c1)c1nccnc1-n1cc(C#N)cn1` (racemic) [Example I-113, (rac)-3-Bromo-N-{1-[3-(4-cyano-1H-pyrazol-1-yl)pyrazin-2-yl]ethyl}-5-(trifluoromethyl)benzamide] showed a mortality at 100 g/ha in test [1] of 100%. Moreover, in test [2], the pest or weed control at 6.4 µg/disc, 20 g/ha was found to be 100% and the pest or weed control at 32 µg/disc, 100 g/ha was found to be 100%. Further, in test [3], the pest or weed control at 1 µg/cm2, 100 g/ha worked out at 100% and the pest or weed control at 5 µg/cm2, 500 g/ha amounted to 100%.
`CC(NC(=O)c1cc(C(F)(F)F)cc(C(F)(F)F)c1)c1nccnc1-n1cc(C(=O)N2CCOCC2)cn1` (racemic) [Example I-90, N-[(rac)-1-{3-[4-(Morpholine-4-carbonyl)-1H-pyrazol-1-yl]pyrazin-2-yl}ethyl]-3,5-bis(trifluoromethyl)benzamide] gave a mortality at 100 g/ha in test [1] of 100%. Further, the pest or weed control at 32 µg/disc, 100 g/ha in test [2] is 100%. In test [3], the pest or weed control at 1 µg/cm2, 100 g/ha came out at 100% and the pest or weed control at 5 µg/cm2, 500 g/ha amounted to 100%.
In the case of `CC(NC(=O)c1cc(C#N)cc(OC(F)(F)F)c1)c1nccnc1-n1cc(C#N)cn1` (racemic) [Example I-116, (rac)-3-Cyano-N-{1-[3-(4-cyano-1H-pyrazol-1-yl)pyrazin-2-yl]ethyl}-5-(trifluoromethoxy)benzamide], in test [1], the mortality at 100 g/ha came to 100%. For the same molecule, in test [2], the pest or weed control at 6.4 µg/disc, 20 g/ha was determined as 100% and the pest or weed control at 32 µg/disc, 100 g/ha came to 100%. In test [3], the pest or weed control at 1 µg/cm2, 100 g/ha came out at 90% and the pest or weed control at 5 µg/cm2, 500 g/ha was found to be 100%.
`CCN(C)C(=O)c1cnn(-c2nccnc2C(C)NC(=O)c2cc(C(F)(F)F)cc(C(F)(F)F)c2)c1` (racemic) [Example I-89, (rac)-1-(3-{1-[3,5-Bis(trifluoromethyl)benzamido]ethyl}pyrazin-2-yl)-N-ethyl-N-methyl-1H-pyrazole-4-carboxamide] showed a mortality at 100 g/ha in test [1] of 100%. In addition, in test [2], the pest or weed control at 6.4 µg/disc, 20 g/ha was determined as 100% and the pest or weed control at 32 µg/disc, 100 g/ha is 100%. Besides, in test [3], the pest or weed control at 1 µg/cm2, 100 g/ha came to 100% and the pest or weed control at 5 µg/cm2, 500 g/ha came out at 100%.
In turn, `CC(NC(=O)c1cc(Br)cc(OC(F)(F)F)c1)c1nccnc1-n1cc(C#N)cn1` (racemic) [Example I-102, (rac)-3-Bromo-N-{1-[3-(4-cyano-1H-pyrazol-1-yl)pyrazin-2-yl]ethyl}-5-(trifluoromethoxy)benzamide] gave a mortality at 100 g/ha in test [1] of 100%. Moreover, in test [2], the pest or weed control at 6.4 µg/disc, 20 g/ha amounted to 100% and the pest or weed control at 32 µg/disc, 100 g/ha stood at 100%. In addition, in test [3], the pest or weed control at 1 µg/cm2, 100 g/ha amounted to 90% and the pest or weed control at 5 µg/cm2, 500 g/ha is 90%.
For `CC(NC(=O)c1cc(C(F)(F)F)cc(C(F)(F)F)c1)c1nccnc1-c1ncc(C(=O)N(C)C)s1` (racemic) [Example I-69, (rac)-2-(3-{1-[3,5-Bis(trifluoromethyl)benzamido]ethyl}pyrazin-2-yl)-N,N-dimethyl-1,3-thiazole-5-carboxamide], the mortality at 100 g/ha in test [1] was 100%. Also, in test [2], the pest or weed control at 6.4 µg/disc, 20 g/ha is 100% and the pest or weed control at 32 µg/disc, 100 g/ha turned out to be 100%. In addition, in test [3], the pest or weed control at 1 µg/cm2, 100 g/ha turned out to be 100% and the pest or weed control at 5 µg/cm2, 500 g/ha was 100%.
`CC(NC(=O)c1cc(Br)cc(Br)c1)c1nccnc1-n1cc(C#N)cn1` (racemic) [Example I-106, (rac)-3,5-Dibromo-N-{1-[3-(4-cyano-1H-pyrazol-1-yl)pyrazin-2-yl]ethyl}benzamide]: the mortality at 100 g/ha in test [1] came to 100%. Besides, in test [2], the pest or weed control at 6.4 µg/disc, 20 g/ha was 100% and the pest or weed control at 32 µg/disc, 100 g/ha amounted to 100%.
In test [1], `CC(NC(=O)c1cc(OC(F)F)cc(C2CC2)c1)c1nccnc1-c1ncc(C(=O)N(C)CC#N)s1` (racemic) [Example I-142, (rac)-N-(Cyanomethyl)-2-(3-{1-[3-cyclopropyl-5-(difluoromethoxy)benzamido]ethyl}pyrazin-2-yl)-N-methyl-1,3-thiazole-5-carboxamide] came in with a mortality at 100 g/ha of 100%. Also, the pest or weed control at 32 µg/disc, 100 g/ha in test [2] was 100%.

Broadly, the mortality is the percentage killed. Lower therefore signals more survivors.
